For 3 compounds, GI50 results are on record in ChEMBL document CHEMBL4414637, “Resorcinosides A and B, Glycosylated Alkylresorcinols from a Marine-Derived Strain of the Fungus Penicillium janthinellum” (2019).

Where a name gives a salt, the structure may show the parent alone.

Common to all, as to type: functional
One assay has as its system HCT-15. Put plainly: Cytotoxicity against human HCT15 cells assessed as cell growth inhibition measured after 48 hrs by SRB assay. To be noted: HCT-15, 48 h.
In a further assay the test system is NUGC-3. Put plainly: Cytotoxicity against human NUGC3 cells assessed as cell growth inhibition measured after 48 hrs by SRB assay. As to conditions: NUGC-3, 48 h.
A further assay concerns NCI-H23. Put plainly: Cytotoxicity against human NCI-H23 cells assessed as cell growth inhibition measured after 48 hrs by SRB assay. To be noted: NCI-H23, 48 h.
The test system of another assay is ACHN. Put plainly: Cytotoxicity against human ACHN cells assessed as cell growth inhibition measured after 48 hrs by SRB assay.
In a further assay the test system is PC-3. Kind of assay: Cytotoxicity against human PC3 cells assessed as cell growth inhibition measured after 48 hrs by SRB assay. As to conditions: PC-3, 48 h.
For a further assay, the system named is MDA-MB-231. Put plainly: Cytotoxicity against human MDA-MB-231 cells assessed as cell growth inhibition measured after 48 hrs by SRB assay. To be noted: MDA-MB-231, 48 h.

`CC[C@H](C)[C@@H](CCCCCCC/C=C/C=C/CCc1cc(O)cc(O)c1Cc1c(O)cc(C)oc1=O)O[C@H]1O[C@H](CO)[C@@H](O)[C@H](O)[C@H]1O`: the GI50 in the assay on HCT-15, in the assay with NUGC-3, with NCI-H23, in the assay on ACHN, in the assay on PC-3 and with MDA-MB-231 was over 50 µM each time.
For the compound `COc1cccc2c1C(=O)c1c(O)c3c(c(O)c1C2=O)C[C@@](O)(C(=O)CO)C[C@@H]3O[C@H]1C[C@H](N)[C@H](O)[C@H](C)O1` [DOXORUBICIN HYDROCHLORIDE], the GI50 in the assay on HCT-15 worked out at 0.14 µM; in the assay on NUGC-3, 0.15 µM; in the assay on NCI-H23, 0.14 µM; with ACHN it was 0.13 µM; in the assay on PC-3, 0.14 µM; in the assay with MDA-MB-231, 0.15 µM.
For `CC[C@H](C)[C@@H](CCCCCCC/C=C/C=C/CCc1cc(O)cc(O)c1)O[C@H]1O[C@H](CO)[C@@H](O)[C@H](O)[C@H]1O`, the GI50 in the assay on HCT-15 turned out to be 19 µM; in the assay with NUGC-3, 9.3 µM; with NCI-H23, 24 µM; in the assay on ACHN it was 31 µM; with PC-3 it was 21 µM; with MDA-MB-231, 25 µM.
